Holding throughout (assay): biochemical
Common to all, as to assay type: biochemical

The target in experiment [1] is T1, 363 human kinases (including Aurora A/B/C) (Homo sapiens, UniProt Q9NRH2).
T1 sequence (Q9NRH2 1-765): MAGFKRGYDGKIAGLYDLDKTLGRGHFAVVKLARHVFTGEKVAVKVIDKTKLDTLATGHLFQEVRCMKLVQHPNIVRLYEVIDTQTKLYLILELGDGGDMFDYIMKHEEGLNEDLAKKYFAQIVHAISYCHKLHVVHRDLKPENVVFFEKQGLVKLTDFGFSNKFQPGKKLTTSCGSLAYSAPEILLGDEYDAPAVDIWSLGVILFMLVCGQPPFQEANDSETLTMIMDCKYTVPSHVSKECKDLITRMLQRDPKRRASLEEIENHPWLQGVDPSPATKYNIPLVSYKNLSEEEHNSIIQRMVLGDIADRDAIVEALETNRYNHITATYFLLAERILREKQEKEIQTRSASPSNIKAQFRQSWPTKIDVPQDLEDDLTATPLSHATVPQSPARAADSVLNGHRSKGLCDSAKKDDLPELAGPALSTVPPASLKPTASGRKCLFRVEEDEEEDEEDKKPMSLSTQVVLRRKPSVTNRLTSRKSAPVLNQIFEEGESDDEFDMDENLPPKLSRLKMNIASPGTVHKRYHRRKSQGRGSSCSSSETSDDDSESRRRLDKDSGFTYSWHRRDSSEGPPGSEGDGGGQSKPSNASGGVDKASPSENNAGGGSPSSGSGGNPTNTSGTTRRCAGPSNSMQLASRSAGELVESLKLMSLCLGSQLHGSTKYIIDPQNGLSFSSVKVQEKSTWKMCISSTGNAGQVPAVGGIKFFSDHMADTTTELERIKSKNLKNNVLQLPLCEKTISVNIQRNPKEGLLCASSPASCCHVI
The note with it: SNRK; for remaining activity at 0.1 µM: 100 nM; for remaining activity at 0.1 µM / remaining activity at 0.5 µM: read-out: % Enzyme Activity (relative to DMSO controls).
Excerpt: (§1) However, the Aurora A/B selectivity ratios derived from our in vitro and in vivo data can be compared to prioritize inhibitors.

In experiment [2] the target is T2, 363 human kinases (including Aurora A/B/C) (Homo sapiens, UniProt Q9UF33).
T2 sequence (Q9UF33 23-1036): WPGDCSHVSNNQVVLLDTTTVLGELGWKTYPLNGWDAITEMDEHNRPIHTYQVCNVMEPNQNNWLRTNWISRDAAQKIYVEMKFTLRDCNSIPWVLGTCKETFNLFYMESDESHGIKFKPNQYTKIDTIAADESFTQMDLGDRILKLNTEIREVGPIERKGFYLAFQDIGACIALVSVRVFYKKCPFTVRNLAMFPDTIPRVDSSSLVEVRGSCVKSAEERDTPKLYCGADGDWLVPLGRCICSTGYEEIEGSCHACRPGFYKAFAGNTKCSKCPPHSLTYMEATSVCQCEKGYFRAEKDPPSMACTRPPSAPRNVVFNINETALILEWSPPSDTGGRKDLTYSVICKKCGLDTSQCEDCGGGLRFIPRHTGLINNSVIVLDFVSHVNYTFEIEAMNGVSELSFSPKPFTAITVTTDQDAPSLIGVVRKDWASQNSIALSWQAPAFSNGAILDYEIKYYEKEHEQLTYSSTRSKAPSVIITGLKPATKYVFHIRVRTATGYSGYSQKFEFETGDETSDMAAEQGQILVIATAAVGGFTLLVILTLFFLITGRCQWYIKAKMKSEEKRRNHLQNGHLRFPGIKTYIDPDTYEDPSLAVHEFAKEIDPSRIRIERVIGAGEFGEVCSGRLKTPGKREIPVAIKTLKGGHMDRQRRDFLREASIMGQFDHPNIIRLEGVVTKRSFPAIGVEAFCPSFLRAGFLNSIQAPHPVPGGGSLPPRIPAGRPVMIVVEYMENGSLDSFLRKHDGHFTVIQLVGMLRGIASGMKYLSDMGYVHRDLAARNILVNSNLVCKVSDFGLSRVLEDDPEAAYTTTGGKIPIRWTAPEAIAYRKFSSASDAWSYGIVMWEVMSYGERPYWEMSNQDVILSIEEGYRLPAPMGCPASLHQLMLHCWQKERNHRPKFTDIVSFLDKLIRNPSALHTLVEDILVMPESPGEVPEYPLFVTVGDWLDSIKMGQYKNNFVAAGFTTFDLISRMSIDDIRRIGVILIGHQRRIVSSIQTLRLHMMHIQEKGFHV
Conditions: EPHA6, [ATP] 100 µM; for remaining activity at 0.1 µM: 100 nM; for remaining activity at 0.1 µM / remaining activity at 0.5 µM: read-out: % Enzyme Activity (relative to DMSO controls).
Excerpt: as §1

Experiment [3] addresses T3, 363 human kinases (including Aurora A/B/C) (Homo sapiens, UniProt Q6PHR2).
T3 sequence (Q6PHR2 1-472): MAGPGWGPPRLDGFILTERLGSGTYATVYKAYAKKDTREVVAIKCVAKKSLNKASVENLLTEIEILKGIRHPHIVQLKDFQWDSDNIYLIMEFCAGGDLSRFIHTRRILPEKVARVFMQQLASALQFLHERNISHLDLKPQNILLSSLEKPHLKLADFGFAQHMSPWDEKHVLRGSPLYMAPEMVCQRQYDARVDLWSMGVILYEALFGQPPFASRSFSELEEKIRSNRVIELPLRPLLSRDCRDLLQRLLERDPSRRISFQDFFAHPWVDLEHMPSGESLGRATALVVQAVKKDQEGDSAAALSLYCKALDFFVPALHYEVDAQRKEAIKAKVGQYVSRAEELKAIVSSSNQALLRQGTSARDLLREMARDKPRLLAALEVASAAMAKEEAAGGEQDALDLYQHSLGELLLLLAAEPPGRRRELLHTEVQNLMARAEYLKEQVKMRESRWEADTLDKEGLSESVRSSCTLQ
The note with it: ULK3; for remaining activity at 0.1 µM: 100 nM; for remaining activity at 0.1 µM / remaining activity at 0.5 µM: read-out: % Enzyme Activity (relative to DMSO controls).
Excerpt: as §1

Experiment [4] concerns the target 363 human kinases (including Aurora A/B/C) (Homo sapiens, UniProt O95747). The note with it: OSR1/OXSR1; for remaining activity at 0.1 µM: 100 nM.
Excerpt: as §1
Where [5] appears, read: read-out: % Enzyme Activity (relative to DMSO controls).

Molecules are shown by their SMILES.

Sequence of 363 human kinases (including Aurora A/B/C) (Homo sapiens, UniProt O95747) (O95747 whole entry): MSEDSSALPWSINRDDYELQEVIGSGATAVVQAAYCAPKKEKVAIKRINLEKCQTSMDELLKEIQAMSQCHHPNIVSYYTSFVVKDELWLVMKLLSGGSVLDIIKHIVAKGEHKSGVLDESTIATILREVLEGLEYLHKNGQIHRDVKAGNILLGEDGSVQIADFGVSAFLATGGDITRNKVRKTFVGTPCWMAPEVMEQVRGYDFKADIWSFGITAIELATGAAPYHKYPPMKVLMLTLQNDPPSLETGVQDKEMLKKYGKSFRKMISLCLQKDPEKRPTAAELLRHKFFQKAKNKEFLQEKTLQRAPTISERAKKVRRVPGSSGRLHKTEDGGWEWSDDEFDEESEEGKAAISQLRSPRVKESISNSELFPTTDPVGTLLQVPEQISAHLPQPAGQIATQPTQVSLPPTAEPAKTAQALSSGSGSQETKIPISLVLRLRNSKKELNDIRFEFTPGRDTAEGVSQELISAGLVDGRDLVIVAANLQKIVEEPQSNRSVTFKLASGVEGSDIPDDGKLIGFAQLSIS

Turning to `CCn1cc(-c2ccnc3[nH]c(-c4cccc(CN(C)C)c4)cc23)c(-c2ccc(NC(=O)N(C)C)cc2)n1` [GSK1070916], the remaining activity at 0.1 µM in experiment [1] was 89.8%; in experiment [2], 89.4%; in experiment [3], 93.8%; in experiment [4] (setting [5]), 95%.
For `O=C(O)[C@]1(Cc2cccc(Nc3nccs3)n2)CC[C@@H](Oc2cccc(Cl)c2F)CC1` [MK-5108], the remaining activity at 0.1 µM in experiment [1] was 95.3%; in experiment [2] it was 5.77%; in experiment [3] it was 89.6%; in experiment [4] (setting [5]), 98.9%. Also, the values for the remaining activity at 0.5 µM in experiment [1] (500 nM), in experiment [2] (500 nM) and in experiment [3] (500 nM) were 88.9%, 1.6% and 62.1%, respectively.
For the molecule `O=C(c1cccc(Cl)c1F)N1CCN(Cc2cccc(Nc3nccs3)n2)CC1` [MK-8745], the “% Enzyme Activity (relative to DMSO controls)” value in experiment [1] (500 nM) is recorded as 90.66%; in experiment [2] (500 nM), 34.30%; in experiment [3] (500 nM), 93.40%; in experiment [4] (500 nM) it was 93.31%. In addition, the remaining activity at 0.5 µM in experiment [1] (500 nM) stood at 92.9%; in experiment [2] (500 nM) it was 34.6%; in experiment [3] (500 nM), 94.4%; in experiment [4] (500 nM, read-out: % Enzyme Activity (relative to DMSO controls)), 93.3%.

The record behind these values is paper PMC4685510, “A Cell Biologist’s Field Guide to Aurora Kinase Inhibitors” (Frontiers in Oncology, 2015).
